Source: PubChem BioAssay (NCI)
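Five compound concentrations were applied to cells in 96-well plates for 48 hours; endpoints were derived by simple linear interpolation of the resulting dose-response curve. The concentration for full growth arrest is given as TGI.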

Experiments:
Assay in all cases: inhibition of tumour cell growth, NCI panel, 48 h
SW-620 colon = system: SW-620 colon
PC-3 prostate = system: PC-3 prostate
HOP-62 NSCLC = system: HOP-62 NSCLC
OVCAR-4 ovarian = system: OVCAR-4 ovarian
MDA-MB-231 breast = system: MDA-MB-231 breast
HCC-2998 colon = system: HCC-2998 colon
COLO 205 colon = system: COLO 205 colon
NCI-H226 lung = system: NCI-H226 lung
NCI-H460 lung = system: NCI-H460 lung
UACC-257 melanoma = system: UACC-257 melanoma
HS 578T breast = system: HS 578T breast
OVCAR-3 ovarian = system: OVCAR-3 ovarian
HCT-15 colon = system: HCT-15 colon
RXF 393 renal = system: RXF 393 renal
MCF7 breast = system: MCF7 breast
SK-OV-3 ovarian = system: SK-OV-3 ovarian
HL-60(TB) leukemia = system: HL-60(TB) leukemia
MDA-MB-435 = system: MDA-MB-435
TK-10 renal = system: TK-10 renal
SNB-75 CNS = system: SNB-75 CNS
SN12C renal = system: SN12C renal
CCRF-CEM leukemia = system: CCRF-CEM leukemia
K-562 leukemia = system: K-562 leukemia
SF-295 CNS = system: SF-295 CNS
LOX IMVI melanoma = system: LOX IMVI melanoma
HCT-116 colon = system: HCT-116 colon
ACHN renal = system: ACHN renal
SK-MEL-5 melanoma = system: SK-MEL-5 melanoma
IGROV1 ovarian = system: IGROV1 ovarian
SK-MEL-28 melanoma = system: SK-MEL-28 melanoma
OVCAR-8 ovarian = system: OVCAR-8 ovarian
NCI-H23 lung = system: NCI-H23 lung
MDA-N = system: MDA-N
HT29 colon = system: HT29 colon
MALME-3M melanoma = system: MALME-3M melanoma
UACC-62 melanoma = system: UACC-62 melanoma
M14 melanoma = system: M14 melanoma
U251 CNS = system: U251 CNS
NCI-H522 lung = system: NCI-H522 lung
BT-549 breast = system: BT-549 breast
EKVX NSCLC = system: EKVX NSCLC
RPMI-8226 leukemia = system: RPMI-8226 leukemia
SK-MEL-2 melanoma = system: SK-MEL-2 melanoma
DU-145 prostate = system: DU-145 prostate
KM12 colon = system: KM12 colon
OVCAR-5 ovarian = system: OVCAR-5 ovarian
NCI/ADR-RES ovarian = system: NCI/ADR-RES ovarian
A549 NSCLC = system: A549 NSCLC
786-0 renal = system: 786-0 renal
UO-31 renal = system: UO-31 renal
CAKI-1 renal = system: CAKI-1 renal
HOP-92 NSCLC = system: HOP-92 NSCLC
A498 renal = system: A498 renal
MOLT-4 leukemia = system: MOLT-4 leukemia
T-47D breast = system: T-47D breast
SNB-19 CNS = system: SNB-19 CNS
SF-268 CNS = system: SF-268 CNS

## COC(=O)[C@]12CC3C=CC1N(C3)C(CBr)c1c2n(S(=O)(=O)c2ccccc2)c2ccccc12 (some centres not stated)
SW-620 colon
  TGI: > 100 µM
PC-3 prostate
  TGI: > 100 µM
HOP-62 NSCLC
  TGI: > 100 µM
OVCAR-4 ovarian
  TGI: > 100 µM
MDA-MB-231 breast
  TGI: > 100 µM
HCC-2998 colon
  TGI: > 100 µM
COLO 205 colon
  TGI: > 100 µM
NCI-H226 lung
  TGI: > 100 µM
NCI-H460 lung
  TGI: > 100 µM
UACC-257 melanoma
  TGI: > 100 µM
HS 578T breast
  TGI: > 100 µM
OVCAR-3 ovarian
  TGI: > 100 µM
HCT-15 colon
  TGI: > 100 µM
RXF 393 renal
  TGI: > 100 µM
MCF7 breast
  TGI: > 100 µM
SK-OV-3 ovarian
  TGI: > 100 µM
HL-60(TB) leukemia
  TGI: > 100 µM
MDA-MB-435
  TGI: > 100 µM
TK-10 renal
  TGI: > 100 µM
SNB-75 CNS
  TGI: 86.2 µM
SN12C renal
  TGI: > 100 µM
CCRF-CEM leukemia
  TGI: > 100 µM
K-562 leukemia
  TGI: 0.314 µM
SF-295 CNS
  TGI: > 100 µM
LOX IMVI melanoma
  TGI: > 100 µM
HCT-116 colon
  TGI: > 100 µM
ACHN renal
  TGI: > 100 µM
SK-MEL-5 melanoma
  TGI: > 100 µM
IGROV1 ovarian
  TGI: > 100 µM
SK-MEL-28 melanoma
  TGI: > 100 µM
OVCAR-8 ovarian
  TGI: > 100 µM
NCI-H23 lung
  TGI: > 100 µM
MDA-N
  TGI: > 100 µM
HT29 colon
  TGI: > 100 µM
MALME-3M melanoma
  TGI: > 100 µM
UACC-62 melanoma
  TGI: > 100 µM
M14 melanoma
  TGI: > 100 µM
U251 CNS
  TGI: > 100 µM
NCI-H522 lung
  TGI: > 100 µM
BT-549 breast
  TGI: > 100 µM
EKVX NSCLC
  TGI: > 100 µM
RPMI-8226 leukemia
  TGI: 23.5 µM
SK-MEL-2 melanoma
  TGI: > 100 µM
DU-145 prostate
  TGI: > 100 µM
KM12 colon
  TGI: > 100 µM
OVCAR-5 ovarian
  TGI: > 100 µM
NCI/ADR-RES ovarian
  TGI: > 100 µM
A549 NSCLC
  TGI: > 100 µM
786-0 renal
  TGI: > 100 µM
UO-31 renal
  TGI: > 100 µM
CAKI-1 renal
  TGI: > 100 µM

## OC1(C(Sc2cc(C(F)(F)F)cc(C(F)(F)F)c2)Sc2cc(C(F)(F)F)cc(C(F)(F)F)c2)C=CCCC1 (configuration not stated)
SW-620 colon
  TGI: 7.74 µM
HOP-62 NSCLC
  TGI: 11.4 µM
OVCAR-4 ovarian
  TGI: 7.06 µM
HCC-2998 colon
  TGI: 3.25 µM
COLO 205 colon
  TGI: 5.59 µM
HOP-92 NSCLC
  TGI: 9.15 µM
NCI-H460 lung
  TGI: 3.55 µM
UACC-257 melanoma
  TGI: 3.56 µM
HS 578T breast
  TGI: 13.3 µM
OVCAR-3 ovarian
  TGI: 6.14 µM
HCT-15 colon
  TGI: 4.13 µM
RXF 393 renal
  TGI: 4.77 µM
A498 renal
  TGI: 4.58 µM
MCF7 breast
  TGI: 4.58 µM
SK-OV-3 ovarian
  TGI: 11.3 µM
HL-60(TB) leukemia
  TGI: 3.97 µM
MDA-MB-435
  TGI: 7.03 µM
MOLT-4 leukemia
  TGI: 5.08 µM
TK-10 renal
  TGI: 3.8 µM
SNB-75 CNS
  TGI: 10.8 µM
SN12C renal
  TGI: 6.77 µM
CCRF-CEM leukemia
  TGI: 6.39 µM
K-562 leukemia
  TGI: 5.42 µM
SF-295 CNS
  TGI: 6.39 µM
LOX IMVI melanoma
  TGI: 5.9 µM
HCT-116 colon
  TGI: 6.74 µM
ACHN renal
  TGI: 5.77 µM
SK-MEL-5 melanoma
  TGI: 16.6 µM
IGROV1 ovarian
  TGI: 8.56 µM
SK-MEL-28 melanoma
  TGI: 9.12 µM
OVCAR-8 ovarian
  TGI: 7.9 µM
NCI-H23 lung
  TGI: 8.66 µM
MDA-N
  TGI: 8.16 µM
T-47D breast
  TGI: 4.26 µM
HT29 colon
  TGI: 7.24 µM
SNB-19 CNS
  TGI: 8.2 µM
MALME-3M melanoma
  TGI: 8.81 µM
SF-268 CNS
  TGI: 8.81 µM
UACC-62 melanoma
  TGI: 7.79 µM
M14 melanoma
  TGI: 6.53 µM
NCI-H522 lung
  TGI: 5.75 µM
BT-549 breast
  TGI: 9.89 µM
EKVX NSCLC
  TGI: 6.78 µM
RPMI-8226 leukemia
  TGI: 4.8 µM
DU-145 prostate
  TGI: 8.99 µM
KM12 colon
  TGI: 5.83 µM
OVCAR-5 ovarian
  TGI: 6.6 µM
NCI/ADR-RES ovarian
  TGI: 10.1 µM
A549 NSCLC
  TGI: 6.1 µM
786-0 renal
  TGI: 8.09 µM
UO-31 renal
  TGI: 3.66 µM
CAKI-1 renal
  TGI: 6.33 µM

## CCCCc1ccc(N=C(N)N)cc1
SW-620 colon
  TGI: > 100 µM
PC-3 prostate
  TGI: > 100 µM
OVCAR-4 ovarian
  TGI: > 100 µM
MDA-MB-231 breast
  TGI: > 100 µM
HCC-2998 colon
  TGI: 30.4 µM
COLO 205 colon
  TGI: 35.4 µM
HOP-92 NSCLC
  TGI: > 100 µM
NCI-H226 lung
  TGI: 91.5 µM
NCI-H460 lung
  TGI: 61.8 µM
UACC-257 melanoma
  TGI: > 100 µM
HS 578T breast
  TGI: > 100 µM
OVCAR-3 ovarian
  TGI: > 100 µM
HCT-15 colon
  TGI: > 100 µM
A498 renal
  TGI: > 100 µM
MCF7 breast
  TGI: 46.3 µM
SK-OV-3 ovarian
  TGI: > 100 µM
HL-60(TB) leukemia
  TGI: 73.6 µM
MDA-MB-435
  TGI: > 100 µM
TK-10 renal
  TGI: 63.9 µM
SN12C renal
  TGI: > 100 µM
CCRF-CEM leukemia
  TGI: 53.7 µM
K-562 leukemia
  TGI: 83.4 µM
SF-295 CNS
  TGI: 87.3 µM
LOX IMVI melanoma
  TGI: > 100 µM
HCT-116 colon
  TGI: > 100 µM
ACHN renal
  TGI: > 100 µM
SK-MEL-5 melanoma
  TGI: 26.8 µM
IGROV1 ovarian
  TGI: 71.7 µM
SK-MEL-28 melanoma
  TGI: > 100 µM
OVCAR-8 ovarian
  TGI: > 100 µM
NCI-H23 lung
  TGI: > 100 µM
MDA-N
  TGI: 67 µM
T-47D breast
  TGI: > 100 µM
HT29 colon
  TGI: 93.5 µM
SNB-19 CNS
  TGI: > 100 µM
MALME-3M melanoma
  TGI: > 100 µM
SF-268 CNS
  TGI: > 100 µM
UACC-62 melanoma
  TGI: > 100 µM
M14 melanoma
  TGI: 63.5 µM
U251 CNS
  TGI: > 100 µM
NCI-H522 lung
  TGI: > 100 µM
BT-549 breast
  TGI: 90.7 µM
EKVX NSCLC
  TGI: > 100 µM
RPMI-8226 leukemia
  TGI: 45.2 µM
SK-MEL-2 melanoma
  TGI: > 100 µM
DU-145 prostate
  TGI: > 100 µM
KM12 colon
  TGI: 36.6 µM
OVCAR-5 ovarian
  TGI: > 100 µM
NCI/ADR-RES ovarian
  TGI: > 100 µM
A549 NSCLC
  TGI: > 100 µM
786-0 renal
  TGI: 48.8 µM
UO-31 renal
  TGI: > 100 µM
CAKI-1 renal
  TGI: > 100 µM

## CC1(C)OC2C(COC(c3ccccc3)(c3ccccc3)c3ccccc3)OC(c3c[nH]c4c(N)ncnc34)C2O1 (configuration not stated)
SW-620 colon
  TGI: 14.1 µM
PC-3 prostate
  TGI: 10.5 µM
HOP-62 NSCLC
  TGI: 16.1 µM
OVCAR-4 ovarian
  TGI: 23.3 µM
MDA-MB-231 breast
  TGI: 27.4 µM
COLO 205 colon
  TGI: 23.9 µM
HOP-92 NSCLC
  TGI: 18.5 µM
NCI-H460 lung
  TGI: 10.5 µM
UACC-257 melanoma
  TGI: 17.5 µM
HS 578T breast
  TGI: 28.4 µM
OVCAR-3 ovarian
  TGI: 9.26 µM
HCT-15 colon
  TGI: 15.2 µM
SK-OV-3 ovarian
  TGI: 17.5 µM
SNB-75 CNS
  TGI: 19.6 µM
SN12C renal
  TGI: 15.4 µM
SF-295 CNS
  TGI: 7.29 µM
LOX IMVI melanoma
  TGI: 3.26 µM
HCT-116 colon
  TGI: 15.9 µM
ACHN renal
  TGI: 13.3 µM
SK-MEL-5 melanoma
  TGI: 3.05 µM
IGROV1 ovarian
  TGI: 17 µM
OVCAR-8 ovarian
  TGI: 21.7 µM
MDA-N
  TGI: 11 µM
T-47D breast
  TGI: 17.2 µM
HT29 colon
  TGI: 7.15 µM
MALME-3M melanoma
  TGI: 16.8 µM
SF-268 CNS
  TGI: 21.4 µM
UACC-62 melanoma
  TGI: 4.21 µM
M14 melanoma
  TGI: 9.44 µM
NCI-H522 lung
  TGI: 17.8 µM
EKVX NSCLC
  TGI: 21.8 µM
SK-MEL-2 melanoma
  TGI: 29.3 µM
DU-145 prostate
  TGI: 18.9 µM
NCI/ADR-RES ovarian
  TGI: 29 µM
A549 NSCLC
  TGI: 13.9 µM
786-0 renal
  TGI: 4.37 µM
